Where “and” joins values, the source holds several entries; their conditions need not be identical. Identical values can stand only once.
Test: xn = mol fraction of the nth substance listed

CN(C)C=O + CO
Details	viscosity
293.15 K, 101 kPa, x2 = 0.0998	0.835 mPa·s
293.15 K, 101 kPa, x2 = 0.2	0.809 mPa·s
293.15 K, 101 kPa, x2 = 0.3	0.782 mPa·s
293.15 K, 101 kPa, x2 = 0.4002	0.754 mPa·s
293.15 K, 101 kPa, x2 = 0.5	0.723 mPa·s
293.15 K, 101 kPa, x2 = 0.6	0.693 mPa·s
293.15 K, 101 kPa, x2 = 0.6997	0.665 mPa·s
293.15 K, 101 kPa, x2 = 0.8	0.64 mPa·s
293.15 K, 101 kPa, x2 = 0.8998	0.613 mPa·s
298 K, 101.3 kPa, x2 = 0.1198	0.766 mPa·s
298 K, 101.3 kPa, x2 = 0.2267	0.739 mPa·s
298 K, 101.3 kPa, x2 = 0.4094	0.693 mPa·s
298 K, 101.3 kPa, x2 = 0.5596	0.655 mPa·s
298 K, 101.3 kPa, x2 = 0.6854	0.623 mPa·s
298 K, 101.3 kPa, x2 = 0.7922	0.596 mPa·s
298 K, 101.3 kPa, x2 = 0.884	0.573 mPa·s
298 K, 101.3 kPa, x2 = 0.9639	0.553 mPa·s
298.15 K, 101 kPa, x1 = 0.3048	0.568 mPa·s
298.15 K, 101 kPa, x2 = 0.0998	0.782 mPa·s
298.15 K, 101 kPa, x2 = 0.2	0.758 mPa·s
298.15 K, 101 kPa, x2 = 0.3	0.734 mPa·s
298.15 K, 101 kPa, x2 = 0.4002	0.705 mPa·s
298.15 K, 101 kPa, x2 = 0.5	0.678 mPa·s
298.15 K, 101 kPa, x2 = 0.6	0.649 mPa·s
298.15 K, 101 kPa, x2 = 0.6997	0.622 mPa·s
298.15 K, 101 kPa, x2 = 0.8	0.596 mPa·s
298.15 K, 101 kPa, x2 = 0.8998	0.572 mPa·s
303.15 K, 101 kPa, x1 = 0.0995	0.5458 mPa·s
303.15 K, 101 kPa, x1 = 0.2004	0.5714 mPa·s
303.15 K, 101 kPa, x1 = 0.3004	0.5986 mPa·s
303.15 K, 101 kPa, x1 = 0.3993	0.6269 mPa·s
303.15 K, 101 kPa, x1 = 0.5008	0.6547 mPa·s
303.15 K, 101 kPa, x1 = 0.5728	0.6716 mPa·s
303.15 K, 101 kPa, x1 = 0.6998	0.7023 mPa·s
303.15 K, 101 kPa, x1 = 0.8014	0.7263 mPa·s
303.15 K, 101 kPa, x1 = 0.8996	0.7515 mPa·s
303.15 K, 101 kPa, x2 = 0.0998	0.736 mPa·s
303.15 K, 101 kPa, x2 = 0.2	0.713 mPa·s
303.15 K, 101 kPa, x2 = 0.3	0.688 mPa·s
303.15 K, 101 kPa, x2 = 0.4002	0.663 mPa·s
303.15 K, 101 kPa, x2 = 0.5	0.674 mPa·s and 0.636 mPa·s
303.15 K, 101 kPa, x2 = 0.6	0.608 mPa·s
303.15 K, 101 kPa, x2 = 0.6997	0.584 mPa·s
303.15 K, 101 kPa, x2 = 0.8	0.559 mPa·s
303.15 K, 101 kPa, x2 = 0.8998	0.534 mPa·s
308.15 K, 101 kPa, x1 = 0.0995	0.5094 mPa·s
308.15 K, 101 kPa, x1 = 0.2004	0.5345 mPa·s
308.15 K, 101 kPa, x1 = 0.3004	0.5606 mPa·s
308.15 K, 101 kPa, x1 = 0.3993	0.5882 mPa·s
308.15 K, 101 kPa, x1 = 0.5008	0.6152 mPa·s
308.15 K, 101 kPa, x1 = 0.5728	0.6314 mPa·s
308.15 K, 101 kPa, x1 = 0.6998	0.6621 mPa·s
308.15 K, 101 kPa, x1 = 0.8014	0.6853 mPa·s
308.15 K, 101 kPa, x1 = 0.8996	0.7087 mPa·s
313.15 K, 101 kPa, x1 = 0.0995	0.4776 mPa·s
313.15 K, 101 kPa, x1 = 0.2004	0.5008 mPa·s
313.15 K, 101 kPa, x1 = 0.3004	0.5259 mPa·s
313.15 K, 101 kPa, x1 = 0.3993	0.5524 mPa·s
313.15 K, 101 kPa, x1 = 0.5008	0.5781 mPa·s
313.15 K, 101 kPa, x1 = 0.5728	0.5933 mPa·s
313.15 K, 101 kPa, x1 = 0.6998	0.6213 mPa·s
313.15 K, 101 kPa, x1 = 0.8014	0.644 mPa·s
313.15 K, 101 kPa, x1 = 0.8996	0.667 mPa·s
313.15 K, 101 kPa, x2 = 0.0998	0.655 mPa·s
313.15 K, 101 kPa, x2 = 0.2	0.635 mPa·s
313.15 K, 101 kPa, x2 = 0.3	0.612 mPa·s
313.15 K, 101 kPa, x2 = 0.4002	0.589 mPa·s
313.15 K, 101 kPa, x2 = 0.5	0.58 mPa·s and 0.565 mPa·s
313.15 K, 101 kPa, x2 = 0.6	0.54 mPa·s
313.15 K, 101 kPa, x2 = 0.6997	0.517 mPa·s
313.15 K, 101 kPa, x2 = 0.8	0.493 mPa·s
313.15 K, 101 kPa, x2 = 0.8998	0.47 mPa·s
318.15 K, 101 kPa, x1 = 0.0995	0.4467 mPa·s
318.15 K, 101 kPa, x1 = 0.2004	0.4692 mPa·s
318.15 K, 101 kPa, x1 = 0.3004	0.4936 mPa·s
318.15 K, 101 kPa, x1 = 0.3993	0.5191 mPa·s
318.15 K, 101 kPa, x1 = 0.5008	0.5439 mPa·s
318.15 K, 101 kPa, x1 = 0.5728	0.5587 mPa·s
318.15 K, 101 kPa, x1 = 0.6998	0.5861 mPa·s
318.15 K, 101 kPa, x1 = 0.8014	0.6075 mPa·s
318.15 K, 101 kPa, x1 = 0.8996	0.6304 mPa·s
323.15 K, 101 kPa, x1 = 0.0995	0.4174 mPa·s
323.15 K, 101 kPa, x1 = 0.2004	0.4387 mPa·s
323.15 K, 101 kPa, x1 = 0.3004	0.4617 mPa·s
323.15 K, 101 kPa, x1 = 0.3993	0.4864 mPa·s
323.15 K, 101 kPa, x1 = 0.5008	0.51 mPa·s
323.15 K, 101 kPa, x1 = 0.5728	0.5243 mPa·s
323.15 K, 101 kPa, x1 = 0.6998	0.5501 mPa·s
323.15 K, 101 kPa, x1 = 0.8014	0.5705 mPa·s
323.15 K, 101 kPa, x1 = 0.8996	0.5923 mPa·s
323.15 K, 101 kPa, x2 = 0.0998	0.588 mPa·s
323.15 K, 101 kPa, x2 = 0.2	0.569 mPa·s
323.15 K, 101 kPa, x2 = 0.3	0.549 mPa·s
323.15 K, 101 kPa, x2 = 0.4002	0.528 mPa·s
323.15 K, 101 kPa, x2 = 0.5	0.503 mPa·s and 0.506 mPa·s
323.15 K, 101 kPa, x2 = 0.6	0.483 mPa·s
323.15 K, 101 kPa, x2 = 0.6997	0.46 mPa·s
323.15 K, 101 kPa, x2 = 0.8	0.438 mPa·s
323.15 K, 101 kPa, x2 = 0.8998	0.415 mPa·s

Source: the CheMixHub viscosity set
